Measured values reported in patent publication US20210393745A1, “OLIGOMER EXTENDED INSULIN-FC CONJUGATES AND THEIR MEDICAL USE” (Novo Nordisk A/S, priority 2018, published 2021).

Legend:
[1] = Stability study: purity by anionic exchange chromatography; format: physicochemical; conditions: purity %(5° C.) − purity %(30° C.), 30 μM, pH 7.4
Description: Samples for stability studies were prepared by weighing out 8-10 mg freeze-dried material. The freeze-dried material was solubilized to […] in a premade solution A (5 mM phophate (pH 7.4), 140 mM NaCl and 70 ppm polysorbate 20). Protein concentration was determined using absorbance at 280 nm using a Nanodrop 2000 (Thermo Fisher Scientific Inc.) and theoretical extinction coefficients. Dilution into solution A was done to reach a final concentration of 30 μM.
Anionic exchange chromatography was performed on an Ultra-Performance Liquid Chromatography system (Waters Acquity H-Class) equipped with a fluorescence detector (Waters Acquity FLR Detector). A Bio SAX column with dimensions 50×4.6 mm from Agilent, kept at 30° C., was used in gradient elution mode. Mobile phase A was 5/95 (v/v), acetonitrile/water with 25 mM BIS-TRIS propane, pH 7.3 and mobile phase B was 5/95 (v/v), acetonitrile/water with 25 mM BIS-TRIS propane and 350 mM NaCl, pH 7.3. Injection volume was 3 μL. The flow rate was kept at 0.5 mL/min with a linear gradient from 10 to 47% B in 3 min followed by a linear gradient from 47 to 55% B in 30 min. Peaks were detected with an emission wavelength of […] and data processing is performed with the EMPOWER 3 software from Waters. Samples were analysed for purity as percent API in relation to all other species.
Reported as Δ purity %=purity %(5° C.)−purity % (30° C.).
Stability of Fc-insulin analogues was evaluated by comparing purity from anion exchange chromatography and formation of high molecular weight products (HMWP) at 5° C. (control) versus 30° C. (heat induced stress). […] The amount of HMWP was decreased by 0.5-2% in the stressed sample versus the control, i.e. some aggregated material has disassociated during incubation at 30° C.

[2] = target: T1, membrane-associated human IR-A (Homo sapiens, UniProt P06213); assay: Insulin receptor affinity on membrane associated receptors (SPA), IR-A; format: binding; conditions: relative to human insulin
T1 construct: expressed in transfected cells; host or cells: BHK cells, pZem219B vector, plasma membrane preparation
T1 sequence (P06213 28-1370 isoform P06213-2 limits assumed): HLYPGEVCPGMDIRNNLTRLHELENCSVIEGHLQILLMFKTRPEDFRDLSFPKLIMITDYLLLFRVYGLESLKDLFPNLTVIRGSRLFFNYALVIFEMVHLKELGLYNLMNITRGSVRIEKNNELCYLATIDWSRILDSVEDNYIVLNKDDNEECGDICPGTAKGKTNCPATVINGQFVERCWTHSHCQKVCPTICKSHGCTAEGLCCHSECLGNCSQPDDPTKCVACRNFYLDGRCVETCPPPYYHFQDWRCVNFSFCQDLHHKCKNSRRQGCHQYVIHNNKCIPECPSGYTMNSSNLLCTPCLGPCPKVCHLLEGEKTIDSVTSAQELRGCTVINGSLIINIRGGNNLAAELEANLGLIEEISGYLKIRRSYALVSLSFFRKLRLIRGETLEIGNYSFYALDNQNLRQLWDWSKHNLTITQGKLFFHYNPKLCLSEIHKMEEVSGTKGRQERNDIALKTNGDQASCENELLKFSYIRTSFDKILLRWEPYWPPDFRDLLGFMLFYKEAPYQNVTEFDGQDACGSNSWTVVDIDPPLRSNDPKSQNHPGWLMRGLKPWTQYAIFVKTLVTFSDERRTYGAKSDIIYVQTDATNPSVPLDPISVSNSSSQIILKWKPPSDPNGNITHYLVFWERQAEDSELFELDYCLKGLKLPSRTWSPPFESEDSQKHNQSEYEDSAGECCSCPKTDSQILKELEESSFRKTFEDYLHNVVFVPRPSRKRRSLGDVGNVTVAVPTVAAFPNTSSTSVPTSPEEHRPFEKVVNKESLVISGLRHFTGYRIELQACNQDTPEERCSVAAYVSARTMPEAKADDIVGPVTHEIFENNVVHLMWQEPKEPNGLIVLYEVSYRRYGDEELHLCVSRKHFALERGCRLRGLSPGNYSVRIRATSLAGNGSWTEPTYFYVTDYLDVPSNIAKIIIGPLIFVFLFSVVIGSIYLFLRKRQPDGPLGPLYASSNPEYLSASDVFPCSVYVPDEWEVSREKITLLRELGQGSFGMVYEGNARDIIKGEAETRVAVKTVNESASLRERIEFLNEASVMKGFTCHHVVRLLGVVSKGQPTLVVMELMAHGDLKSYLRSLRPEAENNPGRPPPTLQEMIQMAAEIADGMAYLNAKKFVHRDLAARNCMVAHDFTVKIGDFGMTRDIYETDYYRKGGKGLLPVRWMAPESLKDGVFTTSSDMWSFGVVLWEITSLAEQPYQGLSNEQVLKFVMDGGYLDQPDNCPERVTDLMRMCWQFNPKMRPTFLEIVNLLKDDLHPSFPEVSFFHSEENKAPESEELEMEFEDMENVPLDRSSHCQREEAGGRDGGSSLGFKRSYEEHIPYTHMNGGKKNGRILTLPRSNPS
T1 sequence (P06213 763-1382 partner limits assumed): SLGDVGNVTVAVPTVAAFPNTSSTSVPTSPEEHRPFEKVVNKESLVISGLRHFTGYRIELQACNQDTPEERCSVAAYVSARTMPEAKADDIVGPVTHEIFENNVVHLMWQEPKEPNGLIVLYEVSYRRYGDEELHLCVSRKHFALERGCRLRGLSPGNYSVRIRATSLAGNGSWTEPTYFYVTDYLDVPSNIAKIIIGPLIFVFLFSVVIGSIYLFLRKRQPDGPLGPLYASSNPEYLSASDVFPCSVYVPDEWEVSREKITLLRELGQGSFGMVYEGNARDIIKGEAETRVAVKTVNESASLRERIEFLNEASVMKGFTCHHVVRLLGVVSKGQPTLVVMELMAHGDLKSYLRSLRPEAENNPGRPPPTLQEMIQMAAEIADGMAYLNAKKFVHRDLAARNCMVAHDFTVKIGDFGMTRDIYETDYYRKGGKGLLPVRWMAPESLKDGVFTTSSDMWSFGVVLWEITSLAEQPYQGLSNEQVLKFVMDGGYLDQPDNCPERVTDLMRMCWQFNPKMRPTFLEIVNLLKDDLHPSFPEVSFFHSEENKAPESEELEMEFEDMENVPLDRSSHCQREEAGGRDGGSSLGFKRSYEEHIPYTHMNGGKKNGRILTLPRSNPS
Description: (§1) Membrane-associated human IR and IGF-1R are purified from BHK cells stably transfected with the pZem219B vector containing either the human IR-A, IR-B or IGF-IR insert. BHK cells are harvested and homogenized in ice-cold buffer (25 mM HEPES pH 7.4, 25 mM CaCl2 and 1 mM MgCl2, 250 mg/L bacitracin, 0.1 mM Pefablock). The homogenates are layered on a 41% (w/v) sucrose cushion and centrifuged for 75 minutes at 95000 g at 4° C. The plasma membranes are collected, diluted 1:5 with buffer (as above) and centrifuged again for 45 minutes at 40000 g at 4° C. The pellets are resuspended in a minimal volume of buffer and drawn through a needle (size 23) three times before storage at −80° C. until usage. The relative binding affinity for either of the membrane-associated human IR-A, IR-B or IGF-1R is determined by competition binding in a SPA setup. IR assays are performed in duplicate in 96-well OptiPlates (Perkin-Elmer Life Sciences). Membrane protein is incubated with gentle agitation for 150 minutes at 25° C. with 50 pM [^125IA14Y]-human insulin in a total volume of […] assay buffer (50 mM HEPES, 150 mM NaCl, 5 mM MgSO4, 0.01% Triton X-100, 0.1% (w/v) HSA (Sigma A1887), Complete EDTA-free protease inhibitors), 50 μg of wheat germ agglutinate (WGA)-coated PVT microspheres (GE Healthcare) and increasing concentrations of ligand. Assays are terminated by centrifugation of the plate at 2000 rpm for 2 minutes and bound radioactivity quantified by counting on a TopCount NXT (Perkin-Elmer Life Sciences).
(§2) IGF-1R assays are conducted essentially as for the IR binding assays except that membrane-associated IGF-1R and 50 pM [^125I-Tyr31]-human IGF-1 were employed.

[3] = target: T2, membrane-associated human IGF-1R (Homo sapiens, UniProt P08069); assay: IGF-1 receptor affinity on membrane associated receptors (SPA); format: binding; conditions: membrane-associated IGF-1R, relative to human insulin
T2 construct: expressed in transfected cells; host or cells: BHK cells, pZem219B vector, plasma membrane preparation
T2 sequence (P08069 31-736 limits assumed): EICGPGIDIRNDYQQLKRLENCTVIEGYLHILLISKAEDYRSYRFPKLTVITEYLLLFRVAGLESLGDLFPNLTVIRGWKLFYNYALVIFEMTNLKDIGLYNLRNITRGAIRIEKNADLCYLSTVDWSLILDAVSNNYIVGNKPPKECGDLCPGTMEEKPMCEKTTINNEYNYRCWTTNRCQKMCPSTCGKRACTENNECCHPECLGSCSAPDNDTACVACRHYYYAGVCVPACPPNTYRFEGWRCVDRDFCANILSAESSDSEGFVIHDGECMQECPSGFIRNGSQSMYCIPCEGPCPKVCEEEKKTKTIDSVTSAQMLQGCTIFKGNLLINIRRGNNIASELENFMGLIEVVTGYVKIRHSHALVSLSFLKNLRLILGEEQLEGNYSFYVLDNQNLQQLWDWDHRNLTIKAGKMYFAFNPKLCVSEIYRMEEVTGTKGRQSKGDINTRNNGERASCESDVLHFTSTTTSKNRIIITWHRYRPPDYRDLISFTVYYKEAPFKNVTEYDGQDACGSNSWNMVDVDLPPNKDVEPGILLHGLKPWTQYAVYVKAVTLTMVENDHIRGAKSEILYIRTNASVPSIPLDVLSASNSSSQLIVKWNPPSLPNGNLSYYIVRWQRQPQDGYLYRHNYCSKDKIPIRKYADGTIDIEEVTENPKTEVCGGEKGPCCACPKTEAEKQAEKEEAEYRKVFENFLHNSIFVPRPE
T2 sequence (P08069 741-1367 partner limits assumed): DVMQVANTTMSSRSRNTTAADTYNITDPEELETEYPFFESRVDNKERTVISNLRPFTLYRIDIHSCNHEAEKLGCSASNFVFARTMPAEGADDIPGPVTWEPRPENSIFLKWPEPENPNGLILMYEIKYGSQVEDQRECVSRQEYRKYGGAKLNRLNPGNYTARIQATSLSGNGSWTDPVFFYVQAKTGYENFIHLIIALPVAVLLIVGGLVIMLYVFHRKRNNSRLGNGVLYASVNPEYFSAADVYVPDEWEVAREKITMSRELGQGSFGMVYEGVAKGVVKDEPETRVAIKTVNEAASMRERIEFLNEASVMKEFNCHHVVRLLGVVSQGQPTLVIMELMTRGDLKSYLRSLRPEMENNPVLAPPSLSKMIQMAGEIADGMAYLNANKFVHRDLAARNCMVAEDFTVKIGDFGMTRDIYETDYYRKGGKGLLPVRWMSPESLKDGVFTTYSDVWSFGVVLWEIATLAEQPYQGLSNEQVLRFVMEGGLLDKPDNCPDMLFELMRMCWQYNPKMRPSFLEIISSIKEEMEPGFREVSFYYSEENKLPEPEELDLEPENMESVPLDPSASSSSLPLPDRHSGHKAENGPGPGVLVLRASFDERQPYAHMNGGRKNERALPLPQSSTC
Description: as §1, §2

hFcRn ectodomain = target: T3, hFcRn ectodomain (Homo sapiens, UniProt P55899); assay: SPR analysis of the binding of hFcRn ECD; conditions: pH 6.0, 25° C., steady-state fitting; read-out: Kn (μM), binding of hFcRn ECD
T3 construct: the hFcRn ectodomain diluted at 4000 nM with 2-fold serial dilutions was injected
T3 sequence (P55899 24-297 limits assumed): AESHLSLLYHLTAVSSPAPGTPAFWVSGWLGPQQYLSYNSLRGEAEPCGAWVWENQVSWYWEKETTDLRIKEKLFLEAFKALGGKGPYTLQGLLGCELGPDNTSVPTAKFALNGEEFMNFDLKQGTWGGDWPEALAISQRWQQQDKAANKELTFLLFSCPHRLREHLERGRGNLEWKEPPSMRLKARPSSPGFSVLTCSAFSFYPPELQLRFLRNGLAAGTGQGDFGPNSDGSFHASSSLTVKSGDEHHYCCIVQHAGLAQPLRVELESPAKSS
T3 sequence (P61769 21-119 partner): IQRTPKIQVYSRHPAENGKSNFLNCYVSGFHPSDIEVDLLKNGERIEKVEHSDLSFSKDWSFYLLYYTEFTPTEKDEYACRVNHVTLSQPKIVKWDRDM
Description: First, the three Insulin-Fc samples diluted at 10 ug/ml and the wild-type hIgG4 Fc (produced in HEK293 cells, i.e. glycosylated) diluted at 30 ug/ml in 10 mM sodium acetate (pH 4.5) (GE Healthcare, catalogue #BR100350) were immobilized on a CMD50L sensor chip (XanTec Bioanalytics GmbH) at spot 2 or 4 at 70-90 RU in each used flow cell via amine coupling with 1×HBS-EP+ (pH 7.4) (GE Healthcare, catalogue #BR-1006-69) used as the running buffer. The wild-type hIgG4 Fc was used as the control sample. In each used flow cell, spots 2, 3 and 4 were activated by 100 mM N-hydroxysuccinimide (NHS) and 400 mM N-ethyl-N′-dimethylaminopropyl carbodiimide hydrochloride (EDC) mixed at equal volume before the immobilization and blocked by 1 M ethanolamine hydrochloride-NaOH (pH 8.5) after the immobilization. NHS, EDC and ethanolamine were obtained from the Amine Coupling Kit, type 2 (GE Healthcare, catalogue #BR100633).
Next, the hFcRn ectodomain diluted at 4000 nM with 2-fold serial dilutions was injected through each used flow cell for 60 sec to allow for binding of the hFcRn ectodomain to the Insulin-Fc conjugates and wild-type hIgG4 Fc samples immobilized on the sensor chip, followed by dissociation for 180 sec. 1×PBS-EP+ (pH 6.0) was used as the dilution buffer for the hFcRn ectodomain and the running buffer in each binding cycle at the flow rate of 30 ul/min. After each binding cycle, the sensor chip was regenerated with a 60 sec injection of 1×PBS-EP+ (pH 7.4) at the flow rate of 30 ul/min. The 1×PBS-EP+ (pH 7.4) buffer was prepared by diluting 0.5 M EDTA (pH 8.0) (Invitrogen, catalogue #15575038) at 3 mM into 1×PBS-P+ (GE Healthcare, catalogue #28995084). The 1×PBS-EP+ (pH 6.0) buffer was prepared by adjusting the pH of the 1×PBS-EP+ buffer from 7.4 to 6.0 using ˜10 M HCl. The affinities (equilibrium dissociation constants, KD) were determined via steady-state fitting of the binding curves using the 1:1 binding model in Biacore 4000 Evaluation Software 1.0 (GE Healthcare).

[4] = target: T4, membrane-associated human IR-B (Homo sapiens, UniProt P06213); assay: Insulin receptor affinity on membrane associated receptors (SPA), IR-B; format: binding; conditions: relative to human insulin
T4 construct: expressed in transfected cells; host or cells: BHK cells, pZem219B vector, plasma membrane preparation
T4 sequence (P06213 28-758 limits assumed): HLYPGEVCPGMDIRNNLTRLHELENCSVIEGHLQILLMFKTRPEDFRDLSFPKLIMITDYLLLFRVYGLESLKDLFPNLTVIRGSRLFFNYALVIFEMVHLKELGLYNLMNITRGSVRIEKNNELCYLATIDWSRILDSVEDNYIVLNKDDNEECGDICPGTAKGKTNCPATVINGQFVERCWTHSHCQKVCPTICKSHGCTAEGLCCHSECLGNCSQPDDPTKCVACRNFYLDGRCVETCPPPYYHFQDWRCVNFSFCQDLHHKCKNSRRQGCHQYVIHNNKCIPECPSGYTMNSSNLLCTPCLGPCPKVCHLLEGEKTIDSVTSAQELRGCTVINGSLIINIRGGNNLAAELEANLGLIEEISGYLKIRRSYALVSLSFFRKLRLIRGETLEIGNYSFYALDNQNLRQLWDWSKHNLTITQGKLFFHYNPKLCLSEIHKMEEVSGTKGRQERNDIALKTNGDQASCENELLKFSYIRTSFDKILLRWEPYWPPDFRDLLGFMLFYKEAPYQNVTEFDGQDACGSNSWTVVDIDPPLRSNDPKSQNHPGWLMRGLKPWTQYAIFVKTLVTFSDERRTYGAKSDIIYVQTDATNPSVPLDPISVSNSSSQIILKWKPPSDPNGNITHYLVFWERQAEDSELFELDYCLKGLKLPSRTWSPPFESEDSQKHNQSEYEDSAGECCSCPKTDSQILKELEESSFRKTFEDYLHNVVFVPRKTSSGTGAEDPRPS
T4 sequence (P06213 763-1382 partner limits assumed): as the sequence (P06213 763-1382 partner limits assumed) above
Description: as §1, §2

primary rat adipocytes = assay: Lipogenesis in rat adipocytes; format: cell-based; conditions: relative to human insulin
Description: As a measure of in vitro potency of the insulin conjugatess of the invention, lipogenesis can be used. Primary rat adipocytes are isolated from the epididymale fat pads and incubated with 3H-glucose in buffer containing e.g. 0.1% fat free HSA and either standard (human insulin, HI) or insulin conjugates of the invention. The labelled glucose is converted into extractable lipids in a dose dependent way, resulting in full dose response curves. The result is expressed as relative potency (%) with 95% confidence limits of insulin of the invention compared to standard (HI).

[5] = test system: streptozotocin treated Sprague-Dawley rats; assay: In vivo PD, blood glucose lowering in streptozotocin treated rats; design: species or system Sprague-Dawley rat; conditions: s.c. 30 nmol/kg, baseline corrected BG up to 10 days, difference from vehicle, mean
Description: (§3) Insulin-Fc conjugates were tested in vivo by subcutaneous (s.c.) administration to normal and streptozotocin (STZ) treated male Sprague-Dawley (SD) rats.
(§4) The rats were dosed s.c. in the neck region with a dose of 30 nmol/kg of the insulin-Fc conjugates. Blood samples for blood glucose and plasma insulin analysis were collected from the tongue vein up to 10 days post dosing. The insulin-Fc concentrations were measured by immuno-assay (LLOQ=1000 pM) and the resulting half-life values after s.c. dosing are shown in Table 4. The PK profiles for normal rats are shown in FIG. 3 and for streptozotocin treated rats in FIG. 6. Blood glucose (BG) was measured using Biosen S Line (EKF) and the BG and baseline corrected BG profiles for normal rats are shown in FIGS. 1 and 2 and for streptozotocin treated rats in FIGS. 4 and 5 respectively.

[6] = test system: normal Sprague-Dawley rats; assay: In vivo PD, blood glucose lowering in normal rats; design: species or system Sprague-Dawley rat; conditions: s.c. 30 nmol/kg, baseline corrected BG up to 10 days, difference from vehicle, mean
Description: as §3, §4

[7] = In vivo PK after s.c. dosing, normal rats; design: species or system Sprague-Dawley rat; conditions: s.c. 30 nmol/kg, mean value
Description: as §3, §4

[8] = In vivo PK after s.c. dosing, streptozotocin treated rats; design: species or system Sprague-Dawley rat; conditions: s.c. 30 nmol/kg, mean value
Description: as §3, §4

Which Δ purity [1] does the source give for “(A14E, A21G, A22(GQEP)11, A66G, A67Q, A68E, A69K^, A70P, B16E, B25H, B29R, desB30 human insulin)/(226A, 227G, 228P, 234A, 235K, 297E, 315Q, 384Q, des447 hIgG4-Fc(226-447))3,5-bis[(2-acetyl)amino]benzoyl Conjugate [Example 5.3]” here?
The Δ purity was 4.3%.

And the “hIR-A mem Rel. aff. (%)” value [2]?
The value was 0.66%.

What about the “IGF1R mem Rel. aff. (%)” value [3] of the same substance?
Its value is 0.29%.

And the Kd (hFcRn ectodomain)?
The Kd was 1.5 µM.

What about the “hIR-B mem Rel. aff. (%)” value [4] of the same substance?
Its value is 0.59%.

And the “Lipogenesis Rel. pot. (%)” value (primary rat adipocytes)?
Its value is 0.64%.

What about the “AOCBG STZ rat” value [5] of the same substance?
Its value is 2771 mM·h.

What about the “AOCBG normal rat” value [6] of the same substance?
Its value is 248 mM·h.

And the “PK normal rat [T1/2, s.c. (h)]” value [7]?
Its value is 48 h.

And the “PK STZ rat [T1/2, s.c. (h)]” value [8]?
Its value is 50 h.
